Data taken from ChEMBL document CHEMBL1147893, “Carbonic anhydrase inhibitors: the X-ray crystal structure of the adduct of N-hydroxysulfamide with isozyme II explains why this new zinc binding function is effective in the design of potent inhibitors” (Bioorg Med Chem Lett, 2007).

Key:
[1] = target: Carbonic anhydrase 1 (Homo sapiens) (UniProt P00915)
Description: Inhibition of human recombinant carbonic anhydrase 1

[2] = target: Carbonic anhydrase 2 (Homo sapiens) (UniProt P00918)
Description: Inhibition of human recombinant carbonic anhydrase 2

[3] = target: Carbonic anhydrase 9 (Homo sapiens) (UniProt Q16790)
Description: Inhibition of human recombinant carbonic anhydrase 9 catalytic domain by CO2 hydrase method

[4] = target: Carbonic anhydrase 12 (Homo sapiens) (UniProt O43570)
Chain of Carbonic anhydrase 12 (Homo sapiens) (O43570 whole entry): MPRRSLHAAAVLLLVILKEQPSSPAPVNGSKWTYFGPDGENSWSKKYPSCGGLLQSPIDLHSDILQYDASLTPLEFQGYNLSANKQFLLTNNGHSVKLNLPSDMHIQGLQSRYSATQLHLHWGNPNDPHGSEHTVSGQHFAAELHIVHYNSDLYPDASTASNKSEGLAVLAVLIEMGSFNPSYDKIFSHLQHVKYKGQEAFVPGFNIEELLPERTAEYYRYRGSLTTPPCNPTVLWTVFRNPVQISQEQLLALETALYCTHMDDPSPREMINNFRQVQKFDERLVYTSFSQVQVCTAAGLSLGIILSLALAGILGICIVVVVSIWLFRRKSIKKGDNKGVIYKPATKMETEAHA
Description: Inhibition of human recombinant carbonic anhydrase 12 catalytic domain by CO2 hydrase method

Chain of Carbonic anhydrase 1 (Homo sapiens) (P00915 2-261 limits assumed): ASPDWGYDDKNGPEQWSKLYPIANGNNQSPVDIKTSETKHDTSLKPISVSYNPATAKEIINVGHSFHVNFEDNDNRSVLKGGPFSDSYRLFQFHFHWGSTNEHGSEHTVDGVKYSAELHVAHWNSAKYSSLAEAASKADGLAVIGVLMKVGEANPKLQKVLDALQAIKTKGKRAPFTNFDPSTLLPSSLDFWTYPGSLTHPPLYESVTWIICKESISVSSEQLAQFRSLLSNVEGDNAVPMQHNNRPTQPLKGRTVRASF

O=S(=O)([O-])[O-].[Na+].[Na+]
Kinact [1]: 6.3 10^6nM
Kinact [2]: > 300 10^6nM
Kinact [3]: > 300 10^6nM
Kinact [4]: 7.7 10^5nM

NS(=O)(=O)O
Kinact [1]: 0.21 10^5nM
Kinact [2]: 0.39 10^6nM
Kinact [3]: 9.2 10^3nM
Kinact [4]: 10.7 10^3nM
